# Measured values: ChEMBL document CHEMBL3885881, “DrugMatrix”
# Species: Rattus norvegicus
# Assay: DrugMatrix - Regimen: Daily Repeat
# Assay type: toxicity, organism-based, Sprague-Dawley
# Parameters: regimen Daily Repeat, gender Male, age 6-8 weeks
# Settings: in vivo, po, 1500 mg/kg, route oral GAVAGE, dose level High, vehicle 100 % WATER; for ABSOLUTE BASOPHIL / ABSOLUTE EOSINOPHIL / ABSOLUTE LYMPHOCYTE / ABSOLUTE MONOCYTE / ABSOLUTE SEGMENTED NEUTROPHIL / BASOPHIL / EOSINOPHIL / ERYTHROCYTE COUNT / HEMATOCRIT / HEMOGLOBIN / LEUKOCYTE COUNT / LYMPHOCYTE / MEAN CORPUSCULAR HEMOGLOBIN / MEAN CORPUSCULAR HEMOGLOBIN CONCENTRATION / MEAN CORPUSCULAR VOLUME / MONOCYTE / NEUTROPHIL / NUCLEATED RED BLOOD CELLS / PLATELET COUNT: tissue Blood; for ALANINE AMINOTRANSFERASE / ALBUMIN / ALKALINE PHOSPHATASE / ASPARTATE AMINOTRANSFERASE / BLOOD UREA NITROGEN / CARBON DIOXIDE / CHLORIDE / CHOLESTEROL / CREATINE PHOSPHOKINASE / CREATININE / GLUCOSE / LACTATE DEHYDROGENASE / LIPASE / PHOSPHORUS / POTASSIUM / SODIUM / TOTAL BILIRUBIN / TOTAL PROTEIN / URIC ACID: tissue Plasma
compound,measurement,setting,value
CNCCc1ccccn1 [BETAHISTINE],ABSOLUTE BASOPHIL,"72 h, time 3 day",0 CELLS/uL
same,ABSOLUTE EOSINOPHIL,"72 h, time 3 day",56.67 CELLS/uL
same,ABSOLUTE LYMPHOCYTE,"72 h, time 3 day",8977.33 CELLS/uL
same,ABSOLUTE MONOCYTE,"72 h, time 3 day",168 CELLS/uL
same,ABSOLUTE SEGMENTED NEUTROPHIL,"72 h, time 3 day",798 CELLS/uL
same,BASOPHIL,"72 h, time 3 day",0%
same,EOSINOPHIL,"72 h, time 3 day",0.67%
same,ERYTHROCYTE COUNT,"72 h, time 3 day",5.37 x10E6/uL
same,HEMATOCRIT,"72 h, time 3 day",33.67%
same,HEMOGLOBIN,"72 h, time 3 day",12.53 G/DL
same,LEUKOCYTE COUNT,"72 h, time 3 day",10 x10E3/uL
same,LYMPHOCYTE,"72 h, time 3 day",89.67%
same,MEAN CORPUSCULAR HEMOGLOBIN,"72 h, time 3 day",23.37 pg
same,MEAN CORPUSCULAR HEMOGLOBIN CONCENTRATION,"72 h, time 3 day",37.27 G/DL
same,MEAN CORPUSCULAR VOLUME,"72 h, time 3 day",62.73 fL
same,MONOCYTE,"72 h, time 3 day",1.67%
same,NEUTROPHIL,"72 h, time 3 day",8%
same,NUCLEATED RED BLOOD CELLS,"72 h, time 3 day",0 /100WBC
same,PLATELET COUNT,"72 h, time 3 day",1427.33 x10E3/uL
same,ALANINE AMINOTRANSFERASE,"72 h, time 3 day",50 u/L
same,ALBUMIN,"72 h, time 3 day",4.53 G/DL
same,ALKALINE PHOSPHATASE,"72 h, time 3 day",288.67 u/L
same,ASPARTATE AMINOTRANSFERASE,"72 h, time 3 day",71.67 u/L
same,BLOOD UREA NITROGEN,"72 h, time 3 day",14.33 mg/dL
same,CARBON DIOXIDE,"72 h, time 3 day",28.33 mmol/L
same,CHLORIDE,"72 h, time 3 day",105.67 MEQ/L
same,CHOLESTEROL,"72 h, time 3 day",76.33 mg/dL
same,CREATINE PHOSPHOKINASE,"72 h, time 3 day",148.67 u/L
same,CREATININE,"72 h, time 3 day",0.19 mg/dL
same,GLUCOSE,"72 h, time 3 day",141 mg/dL
same,LACTATE DEHYDROGENASE,"72 h, time 3 day",118 u/L
same,LIPASE,"72 h, time 3 day",15.67 u/L
same,PHOSPHORUS,"72 h, time 3 day",12.33 mg/dL
same,POTASSIUM,"72 h, time 3 day",6.21 MEQ/L
same,SODIUM,"72 h, time 3 day",150.8 MEQ/L
same,TOTAL BILIRUBIN,"72 h, time 3 day",0.2 mg/dL
same,TOTAL PROTEIN,"72 h, time 3 day",6.07 G/DL
same,URIC ACID,"72 h, time 3 day",0.87 mg/dL
same,ABSOLUTE BASOPHIL,"120 h, time 5 day",0 CELLS/uL
same,ABSOLUTE EOSINOPHIL,"120 h, time 5 day",0 CELLS/uL
same,ABSOLUTE LYMPHOCYTE,"120 h, time 5 day",10659 CELLS/uL
same,ABSOLUTE MONOCYTE,"120 h, time 5 day",37.33 CELLS/uL
same,ABSOLUTE SEGMENTED NEUTROPHIL,"120 h, time 5 day",870.33 CELLS/uL
same,BASOPHIL,"120 h, time 5 day",0%
same,EOSINOPHIL,"120 h, time 5 day",0%
same,ERYTHROCYTE COUNT,"120 h, time 5 day",5.91 x10E6/uL
same,HEMATOCRIT,"120 h, time 5 day",36.13%
same,HEMOGLOBIN,"120 h, time 5 day",13.33 G/DL
same,LEUKOCYTE COUNT,"120 h, time 5 day",11.57 x10E3/uL
same,LYMPHOCYTE,"120 h, time 5 day",92%
same,MEAN CORPUSCULAR HEMOGLOBIN,"120 h, time 5 day",22.63 pg
same,MEAN CORPUSCULAR HEMOGLOBIN CONCENTRATION,"120 h, time 5 day",36.93 G/DL
same,MEAN CORPUSCULAR VOLUME,"120 h, time 5 day",61.27 fL
same,MONOCYTE,"120 h, time 5 day",0.33%
same,NEUTROPHIL,"120 h, time 5 day",7.67%
same,NUCLEATED RED BLOOD CELLS,"120 h, time 5 day",0 /100WBC
same,PLATELET COUNT,"120 h, time 5 day",1404.67 x10E3/uL
same,ALANINE AMINOTRANSFERASE,"120 h, time 5 day",60.67 u/L
same,ALBUMIN,"120 h, time 5 day",4.2 G/DL
same,ALKALINE PHOSPHATASE,"120 h, time 5 day",406.33 u/L
same,ASPARTATE AMINOTRANSFERASE,"120 h, time 5 day",75.67 u/L
same,BLOOD UREA NITROGEN,"120 h, time 5 day",14 mg/dL
same,CARBON DIOXIDE,"120 h, time 5 day",25.33 mmol/L
same,CHLORIDE,"120 h, time 5 day",105.33 MEQ/L
same,CHOLESTEROL,"120 h, time 5 day",59 mg/dL
same,CREATINE PHOSPHOKINASE,"120 h, time 5 day",153 u/L
same,CREATININE,"120 h, time 5 day",0.19 mg/dL
same,GLUCOSE,"120 h, time 5 day",171 mg/dL
same,LACTATE DEHYDROGENASE,"120 h, time 5 day",64 u/L
same,LIPASE,"120 h, time 5 day",8 u/L
same,PHOSPHORUS,"120 h, time 5 day",13.97 mg/dL
same,POTASSIUM,"120 h, time 5 day",5.7 MEQ/L
same,SODIUM,"120 h, time 5 day",146.6 MEQ/L
same,TOTAL BILIRUBIN,"120 h, time 5 day",0.27 mg/dL
same,TOTAL PROTEIN,"120 h, time 5 day",5.9 G/DL
same,URIC ACID,"120 h, time 5 day",2.07 mg/dL
